# In article PMC12057046, “Elucidation of short linear motif-based interactions of the MIT and rhodanese domains of the ubiquitin-specific protease 8” (Biology Direct, 2025):
# Molecular target: T1, USP8 Rhod domain (Homo sapiens, UniProt P40818)
# T1 construct: USP8 Rhod (174–317) (UniProt: P40818); GST (cleaved yes); made in house; host or cells: Escherichia coli BL21-Gold (DE3)
# T1 sequence (P40818 174-317): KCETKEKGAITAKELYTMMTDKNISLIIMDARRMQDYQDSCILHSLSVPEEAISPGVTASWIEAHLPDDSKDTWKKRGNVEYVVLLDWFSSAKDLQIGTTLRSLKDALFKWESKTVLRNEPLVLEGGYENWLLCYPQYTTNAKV
# Experiment: Peptide-phage display-based deep mutational scanning (DMS), USP8 Rhod domain
# Format: binding
# Conditions: for hit_pair_ratio: bait USP8_Rhodanese__P40818_174_317; for enrichment_relative_to_wt at position 7 (wt G) / proportion of amino acid at position 7 (wt G): PSSM, library USP8_DMS, days 2,3
# Protocol: Four rounds of phage selections were carried out using the second generation human disorderome library or the constructed deep mutational scanning library. At least three individual replicates were used for each bait protein. 10 µg of GST-tagged proteins or GST control (diluted in PBS from the stock of proteins kept in the purification elution buffer) were immobilized in 100 µL PBS on a 96-well MaxiSorp (Nunc) plate overnight at 4 °C. The plates were incubated with blocking buffer (with 0.5% BSA in PBS) for 1 h at 4 °C followed by washing with 0.05% Tween 20 in PBS four times. The naïve phage library (10^11 CFU) was diluted in 1/5th volume PEG/NaCl (20% PEG-8000, 0.4 M NaCl) and 1X PBS, incubated on ice for 10 min and centrifuged at 10,000 [drawing 3] g for 10 min. The pellet was resuspended in the volume of PBS (100 µL/ well). The GST-coated control plate was incubated with 100 µL library per well in PBS for 1 h at 4 °C to remove non-specific binders. The supernatant was transferred to the target wells and incubated for 2 h at 4 °C. The wells were washed five times with 0.05% Tween 20 in PBS and the bound phages were eluted with 100 µL per well log-phase E. coli OmniMAX by incubating at 37° C while shaking. After 30 min, M13KO7 helper phages were added and incubated for an additional 45 min. The bacterial cultures were transferred to 1 mL 2YT supplemented with 100 µg/mL carbenicillin, 30 µg/mL kanamycin and 0.3 mM IPTG and grew overnight at 37 °C while shaking. The following day the cultures were centrifuged for 10 min at 2,000 [drawing 4] g, 4 °C. 1/10th volume of 10 [drawing 5] PBS was added to adjust the pH and heated at 65 °C for 10 min. The phage pools from each round were used as in-phages for the next round of selections.
# The samples were prepared for NGS as previously described. […] The PCR products were normalized with 25 µL Mag-bind Total Pure NGS beads (Omega Biotek) and 10 µL of each eluted sample (Qiagen Elution Buffer) was pooled and cleaned-up with a PCR purification kit (Qiagen). The PCR product was confirmed by 2% agarose electrophoresis and the band was extracted with QIAquick Gel extraction Kit (Qiagen) and eluted with 30 µL TE buffer. The dsDNA was quantified using QuantiT PicoGreen dsDNA Assay Kit (Thermo Fisher) and sent for NGS (Illumina MiSeq v3, 1 × 150 bp read setup, 20% PhiX, NGI SciLifeLab facility, Sweden). The NGS data were demultiplexed, adapter regions were trimmed and sequences with an average quality of at least 20 were translated to peptide sequences. The NGS data were analysed using custom Python scripts. The total read NGS counts for each selection experiment of each peptide sequence were compiled and annotated in PepTools (https://slim.icr.ac.uk/tools/peptools/). Since ProP-PD is in essence a competition assay, the possibility of the input phage library influencing the selection outcome was explored. […] Pearson correlation coefficient and p-value were calculated using Python’s SciPy library.
# [1] = ProP-PD DMS, pair wild-type GMERVLGGLSSPLRLL (wt_00013) vs mutant, positive where wild-type fraction is higher, negative where mutant fraction is higher
# [2] = ProP-PD pairs, wild-type/mutant pair, wild type KIAA1614 569-584 GMERVLGGLSSPLRLL (wt_00013)
# [3] = wild type/mutant pair, vs hit_library_peptide_wt GLALWEAKMKQLAERA, negative where mutant fraction exceeds wild type, ProP-PD pairs (sheet S7.B)
hit_pair_ratio [1],hit_pair_ratio [2],Substance,further results
65.83,–,GMERVLGGLSSPFRLL,–
32.20,–,GMERVLGGLSSPGRLL,–
80.49,–,GMERVLGGLSSPHRLL,–
321.97,–,GMERVLGGLSSPKRLL,–
-3.54,–,GMERVLGGLSSPLALL,–
107.32,–,GMERVLGGLSSPLELL,–
1.48,–,GMERVLGGLSSPLFLL,–
107.32,–,GMERVLGGLSSPLGLL,–
5.88,–,GMERVLGGLSSPLHLL,–
-3.18,–,GMERVLGGLSSPLILL,–
5.73,–,GMERVLGGLSSPLKLL,–
2.57,–,GMERVLGGLSSPLLLL,–
-10.76,–,GMERVLGGLSSPLMLL,–
38.62,–,GMERVLGGLSSPLNLL,–
59.13,–,GMERVLGGLSSPLQLL,–
160.99,–,GMERVLGGLSSPLRAL,–
160.99,–,GMERVLGGLSSPLRGL,–
321.97,–,GMERVLGGLSSPLRIL,–
131.67,–,GMERVLGGLSSPLRLA,–
80.49,–,GMERVLGGLSSPLRLF,–
321.97,–,GMERVLGGLSSPLRLG,–
8.26,–,GMERVLGGLSSPLRLH,–
4.34,–,GMERVLGGLSSPLRLI,–
-1.86,–,GMERVLGGLSSPLRLM,–
321.97,–,GMERVLGGLSSPLRLN,–

hit_pair_ratio [1],hit_pair_ratio [2],Substance,further results
160.99,–,GMERVLGGLSSPLRLP,–
26.83,–,GMERVLGGLSSPLRLQ,–
131.67,–,GMERVLGGLSSPLRLT,–
40.25,–,GMERVLGGLSSPLRLV,–
160.99,–,GMERVLGGLSSPLRNL,–
160.99,–,GMERVLGGLSSPLRVL,–
-1.20,–,GMERVLGGLSSPLSLL,–
1.50,–,GMERVLGGLSSPLTLL,–
-21.41,–,GMERVLGGLSSPLVLL,–
-1.66,–,GMERVLGGLSSPLWLL,–
5.39,–,GMERVLGGLSSPLYLL,–
7.90,–,GMERVLGGLSSPMRLL,–
321.97,–,GMERVLGGLSSPNRLL,–
160.99,–,GMERVLGGLSSPPRLL,–
160.99,–,GMERVLGGLSSPRRLL,–
1.14,–,GMERVLGGLSSPSRLL,–
1.41,–,GMERVLGGLSSPTRLL,–
5.59,–,GMERVLGGLSSPVRLL,–
2.81,–,GMERVLGGLSSPWRLL,–
16.65,–,GMERVLGGLSSPYRLL,–
321.97,–,GMERVLGGLSSQLRLL,–
160.99,–,GMERVLGGLSSRLRLL,–
8.62,–,GMERVLGGLSSSLRLL,–
131.67,–,GMERVLGGLSSTLRLL,–
2.98,–,GMERVLGGLSTPLRLL,–

hit_pair_ratio [1],hit_pair_ratio [2],Substance,further results
93.45,–,GMERVLGGLSVPLRLL,–
321.97,–,GMERVLGGLSYPLRLL,–
321.97,–,GMERVLGGLVSPLRLL,–
21.15,–,GMERVLGGMSSPLRLL,–
–,1.15,GMERVLGGNSSPLRLL,–
–,2.15,GMERVLGGPSSPLRLL,–
–,-8.29,GMERVLGGQSSPLRLL,–
160.99,–,GMERVLGGRSSPLRLL,–
–,2.67,GMERVLGGSSSPLRLL,–
–,-7.40,GMERVLGGTSSPLRLL,–
–,-2.88,GMERVLGGVSSPLRLL,–
10.09,–,GMERVLGGWSSPLRLL,–
32.92,–,GMERVLGGYSSPLRLL,–
–,160.99,GMERVLGNLSSPLRLL,–
–,321.97,GMERVLGTLSSPLRLL,–
–,14.78,GMERVLGVLSSPLRLL,–
–,6.31,GMERVLHGLSSPLRLL,–
–,3.89,GMERVLIGLSSPLRLL,–
–,131.67,GMERVLKGLSSPLRLL,–
–,3.42,GMERVLLGLSSPLRLL,–
–,-3.47,GMERVLMGLSSPLRLL,–
–,-1.21,GMERVLNGLSSPLRLL,–
–,131.67,GMERVLPGLSSPLRLL,–
–,-3.38,GMERVLQGLSSPLRLL,–
–,18.46,GMERVLRGLSSPLRLL,–

hit_pair_ratio [1],hit_pair_ratio [2],Substance,further results
–,2.55,GMERVLSGLSSPLRLL,–
–,-43.42,GMERVLTGLSSPLRLL,–
–,-3.34,GMERVLVGLSSPLRLL,–
–,321.97,GMERVLWGLSSPLRLL,–
–,2.20,GMERVLYGLSSPLRLL,–
–,321.97,GMERVNGGLSSPLRLL,–
–,12.38,GMERVPGGLSSPLRLL,–
–,107.32,GMERVQGGLSSPLRLL,–
–,321.97,GMERVSGGLSSPLRLL,–
–,40.25,GMERVTGGLSSPLRLL,–
–,321.97,GMERVVGGLSSPLRLL,–
–,-5.43,GMERWLGGLSSPLRLL,–
–,-2.09,GMERYLGGLSSPLRLL,–
–,321.97,GMETVLGGLSSPLRLL,–
–,40.25,GMEWVLGGLSSPLRLL,–
–,321.97,GMFRVLGGLSSPLRLL,–
–,16.95,GMHRVLGGLSSPLRLL,–
–,32.20,GMLRVLGGLSSPLRLL,–
–,2.27,GMNRVLGGLSSPLRLL,–
–,21.46,GMPRVLGGLSSPLRLL,–
–,1.88,GMQRVLGGLSSPLRLL,–
–,9.14,GMSRVLGGLSSPLRLL,–
–,23.00,GMTRVLGGLSSPLRLL,–
–,160.99,GMVRVLGGLSSPLRLL,–
–,15.33,GMWRVLGGLSSPLRLL,–

hit_pair_ratio [1],hit_pair_ratio [2],Substance,further results
–,17.24,GMYRVLGGLSSPLRLL,–
–,-3.41,GNERVLGGLSSPLRLL,–
–,–,GPALWEAKMKQLAERA,hit_pair_ratio [3]: 1107.01
–,-9.75,GPERVLGGLSSPLRLL,–
–,-1.16,GQERVLGGLSSPLRLL,–
–,–,GRALWEAKMKQLAERA,hit_pair_ratio [3]: 1107.01
–,1.40,GRERVLGGLSSPLRLL,–
–,–,GSALWEAKMKQLAERA,hit_pair_ratio [3]: 417.62
–,-3.84,GSERVLGGLSSPLRLL,–
–,–,GTALWEAKMKQLAERA,hit_pair_ratio [3]: 1107.01
–,-5.86,GTERVLGGLSSPLRLL,–
–,–,GVALWEAKMKQLAERA,hit_pair_ratio [3]: -1.59
–,-8.18,GVERVLGGLSSPLRLL,–
–,–,GWALWEAKMKQLAERA,hit_pair_ratio [3]: 11.95
–,3.37,GWERVLGGLSSPLRLL,–
–,–,GYALWEAKMKQLAERA,hit_pair_ratio [3]: 276.75
–,1.08,GYERVLGGLSSPLRLL,–
–,–,HMERVLGGLSSPLRLL,"hit_pair_ratio (wild-type/mutant pair ratio of averaged fractions, negative values where mutant fraction is higher): -2.43"
–,24.34,IMERVLGGLSSPLRLL,–
–,–,"KIAA1614_Q5VZ46_569_584 G7A (MERVLGALSSPLRLLP; UniProt Q5VZ46 569-584, looked up, variant G7A)",enrichment_relative_to_wt at position 7 (wt G): 1.68; proportion of amino acid at position 7 (wt G): 0.0259
–,–,"KIAA1614_Q5VZ46_569_584 G7D (MERVLGDLSSPLRLLP; peptide 569-584; UniProt Q5VZ46 569-584, looked up, variant G7D)",enrichment_relative_to_wt at position 7 (wt G): 17; proportion of amino acid at position 7 (wt G): 0.26
